Assay results: US6844320B1, “Treatment of preeclampsia, toxemia and preterm labor with combination of progestational agent and a nitric oxide synthase substrate and/or donor” (Board of Regents, The University of Texas System, priority 1993, dated 2005)
Entries after “also recorded” stand apart in the source; their conditions may differ. Marks after values point to notes of the source that are not given here.

Key:
[1] = tested on: L-NAME-induced "preeclampsia" animals; assay: L-NAME-induced "preeclampsia": blood pressure and fetal weights; assay type: in vivo; details: for Effect on L-NAME-induced hypertension (blood pressure): 50 mg L-NAME (FIG. 5); for Effect on fetal weights (pup weights): same L-NAME-treated "preeclamptic" animals (FIG. 6)
[2] = tested on: spontaneously contracting uterine strips from rat; assay: Relaxation of spontaneously contracting uterine strips in muscle baths; assay type: cell-based
Experimental: The tissues were obtained on days 17-22 (d17, d18, d19 and d22) of gestation, on day 22 (d22 del) during spontaeous delivery (1-3 pups delivered), or on 1 (d1pp) and 2 (d2pp) days postpartum. […] Data are analyzed by repeated measures ANOVA on seven groups. […] Each data point represent mean±S.E.M. The total number of strips studied at each time period was 8-16 from 4-6 animals per group.
Each upstroke from baseline represents a contraction.
In the experiments whose results are shown by the graph of FIG. 2, the tissues were obtained on days 17-22 (d17, d18, d19 and d22) of gestation, on day 22 (d22 del) during spontaneous delivery (1-3 pups delivered), or on 1 (d1pp) and 2 (d2pp) days postpartum. […] Each data point represent mean±SEM. The total number of strips studied at each time period was 8-16 from 4-6 animals per group.

[3] = tested on: pregnant rats; assay: L-NAME infusion to pregnant rats: delivery and pups delivered; assay type: in vivo
Source text: The data in Table 2 below show the delivery and the pups delivered of L-NAME infusion to pregnant rats.

[4] = tested on: pregnant rats; assay: L-NAME infusion in pregnant rats: blood pressure; assay type: in vivo, rat
Source text: The data in Table 1 below show the effects of L-NAME infusion on blood pressure (mm Hg) in pregnant rats.

`CCC(=O)[C@@]1(C)CC[C@H]2[C@@H]3CCC4=CC(=O)CCC4=C3CC[C@@]21C` [R 5020, promegestone] was tested, and the “Effect on L-NAME-induced hypertension (blood pressure)” value [1] was “partinally reduced” and the “Effect on fetal weights (pup weights)” value [1] was “slightly but statistically significant, elevated fetal weights”.

`N=C(N)NCCC[C@H](N)C(=O)O` [L-arginine] was tested, and the “Duration of complete inhibition of spontaneous uterine contractions” value ([2]; 0.1 mM to 10 mM, strips from days 17-22 of gestation, delivery, postpartum (FIG. 2)) was “dose-dependent”, the “Relaxation of spontaneously contracting tissues” value ([2]; 1 mM (FIG. 1E), repeatable in the same strip) was “produced relaxation” and the “Relaxation of spontaneously contracting uterine strips” value ([2]; 1-3 mM, rat day 18 of gestation (FIG. 1 A, B, E)) was “substantial relaxations”. The “Relaxation effects during spontaneous delivery at term and postpartum, compared to all other times” value ([2]; from concentrations of 1 mM (FIG. 2)) was “significantly (P<0.01) decreased”, the “Effect on L-NAME-induced hypertension (blood pressure)” value [1] was “partially reduced blood pressure” and the “Effect on fetal weights (pup weights)” value [1] was “slightly but statistically significant, elevated fetal weights”.

With `COC(=O)[C@@H](N)CCCNC(=N)N[N+](=O)[O-]` [L-NAME, N^G-nitro-L-arginine methyl ester] the “Day of Delivery” value ([3]; L-NAME 25 mg/day) was 22.4 ± 0.2, the Weight of pups ([3]; L-NAME 25 mg/day) was 5.05 ± 0.08^b and the “# of dead pups” value ([3]; L-NAME 25 mg/day, 9 animals) was 5. For the same compound, the “Day of Delivery” value ([3]; L-NAME 50 mg/day) was 22.7 ± 0.2, the Weight of pups ([3]; L-NAME 50 mg/day) was 4.56 ± 0.10^c and the “# of dead pups” value ([3]; L-NAME 50 mg/day, 10 animals) was 10. For the same compound, the “Blood Pressure” value ([4]; L-NAME 25 mg/day infusion, gestation Day 15) was 119 ± 2^a mm Hg, the “Blood Pressure” value ([4]; L-NAME 25 mg/day infusion, gestation Day 18) was 144 ± 4^b mm Hg and the “Blood Pressure” value ([4]; L-NAME 25 mg/day infusion, gestation Day 22) was 146 ± 2^b mm Hg. The “Blood Pressure” value ([4]; L-NAME 50 mg/day infusion, gestation Day 15) was 123 ± 3^a mm Hg, the “Blood Pressure” value ([4]; L-NAME 50 mg/day infusion, gestation Day 18) was 166 ± 2^c mm Hg and the “Blood Pressure” value ([4]; L-NAME 50 mg/day infusion, gestation Day 22) was 168 ± 3^c mm Hg. The “Effect on the relaxation produced by L-arginine” value ([2]; 3 mM (FIG. 1B)) was “reversed”.

For `CN(C)c1ccc2nc3ccc(=[N+](C)C)cc-3sc2c1` [methylene blue], the “Effect on the relaxation effect of L-arginine (1 mM)” value ([2]; 0.1 mM, added before the application of L-arginine) was “abolished” and the “Effect on the relaxation produced by L-arginine” value ([2]; (FIG. 1E)) was “reversed”.

With `[N]=O` [nitric oxide] the “Relaxation of spontaneously contracting uterine strips” value ([2]; 0.1 mM, rat day 18 of gestation (FIG. 1D)) was “substantial relaxations; also recorded: relaxation”.
